Measured values as given in a melting point compilation (Tetko et al.).

melting point [°C]	Structure (SMILES)
115 to 117	O=C(O)CCCCc1cccc(O)c1
112 to 114	CCOC(C)c1nc(C)c(C(=O)O)s1 (configuration not stated)
154 to 156	O=C(O)c1nnn(-c2cccc(Br)c2)c1C(F)(F)F
198 to 200	Cn1nc(Br)c2c(NN)ncnc21
114 to 116	O=C(O)c1occc1CSc1ccccc1
124 to 126	Cc1cc(N)nn1-c1ccc(Cl)c(Cl)c1
96 to 98	CC1CCN(C(=O)c2cccnc2Cl)CC1
135 to 137	O=C(O)C1CCS(=O)(=O)C1 (configuration not stated)
75 to 77	COC(=O)c1cccc(NC(=O)CC(C)=O)c1
134 to 136	O=C(O)c1nn(-c2ccccc2)cc1OC(F)F
84 to 86	CN(C)S(=O)(=O)c1ccc(Cl)c(C(=O)NCCCCCC(=O)O)c1
164 to 166	O=C(O)c1ccc2c(c1)COC2
63 to 65	Cc1nc2cc(C(F)(F)F)ccc2s1
175 to 177	Nc1sc2c(c1-c1nc3ccccc3[nH]1)CCCC2
103 to 105	O=C(CCl)NCC(=O)c1ccccc1Br
130 to 132	O=C(O)c1csc(S(=O)(=O)Cl)c1
138 to 140	CC(C)(C)CNc1ccc(C(N)=O)c(Cl)c1
225 to 227	S=c1[nH][nH]c(=Nc2cccc(Br)c2)s1
266 to 268	Cc1cc(-c2cc(C(=O)O)c3c(C)noc3n2)c(C)o1
76 to 78	COc1cc(Cl)c(S(=O)(=O)Cl)cc1Cl
179 to 181	Cc1nc(CCC(=O)O)oc1-c1ccc(Br)cc1
109 to 111	Fc1ccc(-c2ccn[nH]2)cc1Cl
29 to 31	N#Cc1c(F)cccc1OC(F)F

melting point [°C]	Structure (SMILES)
304 to 306	NC(=O)c1ccc(CSc2ccc(C(=O)O)cc2)cc1
119 to 121	O=[N+]([O-])c1ccc(-c2nc(CCl)co2)cc1
95 to 97	FC(F)(F)c1nc(Cl)c2sccc2n1
165 to 167	O=C(O)c1ccccc1NS(=O)(=O)c1ccc(F)cc1
68 to 70	C=CC(=O)Nc1ccccc1OC
179 to 181	CCCOc1ccc(/C=C/C(=O)O)cc1
69 to 71	CC(C)COC(=O)N1CCC(C(=O)O)CC1
194 to 196	O=c1ccc2c(Cl)ccc(Cl)c2[nH]1
42 to 44	COCC(C)C(N)=S (configuration not stated)
123 to 127	CCc1ccccc1OCC(=O)O
315 to 317	O=C(O)c1ccc(-c2ccncc2)[nH]c1=O
122 to 124	O=C(O)C1CCCN(C(=O)Cc2ccc(F)cc2)C1 (configuration not stated)
49 to 51	O=C(c1cccc(F)c1)N1CCCNCC1
204 to 206	O=C(O)c1csc(-c2ccc(Cl)cc2Cl)n1
58 to 60	COc1cccc(NC(=O)OCC(F)(F)F)c1
144 to 146	Nc1cc(Cl)ccc1N1CCC(CO)CC1
86 to 88	Cc1nn(C2CCS(=O)(=O)C2)c(N2CCCCC2)c1C=O (configuration not stated)
217 to 219	CC1CC(C)CN(S(=O)(=O)c2cccc(C(=O)O)c2)C1 (configuration not stated)
249 to 251	Cc1cc(C)nc(-n2nc(C)c(CC(=O)O)c2C)n1
229 to 231	O=C(O)CCNC(=O)c1ccc2[nH]nnc2c1
125 to 127	CC(=O)c1csc(-c2csc(C)n2)c1
134 to 136	CCOC(=O)C(O)c1nccn1Cc1ccccc1 (configuration not stated)
54 to 56	NC1CCCc2nc(-c3ccc(F)cc3)sc21 (configuration not stated)

melting point [°C]	Structure (SMILES)
160 to 162	CCN(c1ccccc1)S(=O)(=O)c1cc(C(=O)O)ccc1C
210 to 212	OCc1nc2cccnc2[nH]1
81 to 83	CN1CCN(C(=O)c2ccc(Br)cc2)CC1
108 to 110	Cc1noc(C2CC2)c1NC(=O)OC(C)(C)C
150 to 152	CC1(c2ccccc2)CC(=O)NC(=O)C1
142 to 144	O=C(O)CNc1ccc(Cl)cc1
319 to 321	O=C1COc2ncc(C(=O)O)cc2N1
64 to 66	Cc1cc(Br)ncc1[N+](=O)[O-]
134 to 136	NC(=O)COc1ccc(C=O)cc1
97 to 99	Nc1ccc(-c2nc(C3CC3)no2)cc1Cl
109 to 111	COC(=O)c1cc(OC)c(S(=O)(=O)O)s1
98 to 101	CN(C1CCCCC1)S(=O)(=O)c1ccccc1N
139 to 141	Nc1nc(Cc2ccccc2)c(-c2ccccc2)s1
219 to 221	Cc1ccccc1-c1nnc(N)[nH]1
110 to 112	Cc1ccc(NCCC#N)cc1
142 to 144	Cc1nn(-c2ccc(Br)cc2)c(C)c1C=O
117 to 121	O=C(O)c1ccccc1OCc1cscn1
115 to 117	Cc1ccccc1NC(=O)C1CCc2ccccc2N1 (configuration not stated)
128 to 130	O=C(NCCO)c1cncc(Br)c1
128 to 130	O=S(=O)(Cl)c1ccc2c(c1)S(=O)(=O)CC2
119 to 121	CC(C)c1ccc(C2(C(=O)O)CCC2)cc1
114 to 116	Nc1nc(C2CC2)c(Cc2ccccc2F)s1
135 to 137	Nc1sc2c(c1-c1nc3ccccc3s1)CCC2

melting point [°C]	Structure (SMILES)
136 to 138	CN(c1ccccc1)S(=O)(=O)c1ccccc1C(=O)O
68 to 70	CC(C)Nc1cc(F)ccc1[N+](=O)[O-]
105 to 107	CC1(c2cccc3ccccc23)NC(=O)NC1=O (configuration not stated)
213 to 216	N#Cc1ccccc1Sc1ccccc1C(=O)O
61 to 63	O=C1CCC(=O)N1CC1CO1 (configuration not stated)
31 to 33	CC(C)(C)OC(=O)c1cccc(C=O)c1
95 to 97	CN(C)c1c(F)cc(C(=N)N)cc1F
219 to 221	N#Cc1cc2c([nH]c1=O)CCC2
232 to 234	O=C(O)c1ccc(S(=O)(=O)C(F)F)cc1
34 to 36	CC(C)(C)c1nn(-c2ccccc2)c(Cl)c1C=O
101 to 103	COC(=O)c1cccc(-c2ncno2)c1
90 to 92	O=C1CC(c2ccc(Cl)cc2)N1 (configuration not stated)
203 to 205	Cc1cc(N)n(-c2ncccn2)n1
189 to 191	O=C(O)c1cc2c(cc1O)OCO2
29 to 31	CC(C)(O[Si](C)(C)C)C(N)=O
162 to 164	COc1ccc(-c2nn(-c3ccccc3)cc2C=CC(=O)O)cc1OC
144 to 146	Cc1ccccc1-n1cnnc1S
120 to 122	Nc1ccc(C(=O)N2CCCC2c2ccccc2)cc1 (configuration not stated)
123 to 125	Clc1nc(-c2cccs2)nc2ccccc12
69 to 71	CN(CC(=O)O)c1ccccc1[N+](=O)[O-]
104 to 106	c1nc(C2CCCCN2)n[nH]1 (configuration not stated)
303 to 305	Cc1cc(C)n2cnc(C(N)=O)c2n1
67 to 69	Cc1nn(CCO)c(C)c1C=O

melting point [°C]	Structure (SMILES)
58 to 60	Cc1ccc(-c2cnc(CCl)o2)cc1
139 to 141	CC(C)Sc1ccc(C(=O)O)cc1
116 to 118	Cc1ccc(-c2n[nH]cc2Br)cc1C
32 to 34	N#CC=C(Cl)c1ccccc1
182 to 184	O=C(CSc1nnnn1-c1ccccc1)c1ccc[nH]1
125 to 127	Cc1cc(Br)ccc1SCC(=O)O
86 to 88	COc1ccccc1-c1nnc(CCl)o1
172 to 174	Cc1nc(C(=O)O)c(C)s1
55 to 57	COc1ccc(CC2CCNCC2)cc1
129 to 131	CCC(Nc1c([N+](=O)[O-])c(C)nn1C)C(=O)O (configuration not stated)
311 to 313	O=C(O)c1c[nH]cc1C(=O)O
153 to 155	CCC(CO)NC(=O)c1ccc(N)cc1 (configuration not stated)
186 to 188	Cc1cc(N)ncn1
192 to 194	O=C1COc2cc(Br)ccc2N1
248 to 250	O=C(O)c1cc([N+](=O)[O-])cc2c1OCCO2
137 to 139	COc1cc(C=O)ccc1OCC(=O)c1ccc(Cl)c(Cl)c1
175 to 177	CC(C)Cn1ncc2cc(C(=O)O)cnc21
206 to 208	Cc1ccccc1-n1c(S)nc(O)cc1=O
180 to 182	Clc1nc(-c2cccnc2)nc2ccccc12
131 to 133	Cn1ccnc(NN)c1=O
38 to 40	CCOC(=O)CCS(=O)(=O)c1ccc(F)cc1
143 to 145	NCc1noc(-c2ccco2)n1
43 to 45	CCc1ccc(N2CCC(=O)CC2)cc1

melting point [°C]	Structure (SMILES)
240 to 242	O=C(O)CCc1csc2nc(C3CC3)cn12
162 to 164	O=C1/C(=C\C=C\c2ccco2)CCC/C1=C\C=C\c1ccco1
123 to 125	Cc1noc(S)n1
161 to 163	O=C(O)C1CCC(NC(=O)C2CCCC2)CC1 (configuration not stated)
188 to 192	O=C(O)c1cc(N2CCOCC2)ccc1[N+](=O)[O-]
204 to 206	O=C(O)c1ccc(-c2ccc3c(c2)OCCO3)s1
229 to 231	Cc1cc(C(=O)O)cc(S(C)(=O)=O)c1F
308 to 310	O=c1ccc(=O)n(-c2ccc([N+](=O)[O-])cc2)[nH]1
99 to 101	O=C1C(Br)CCN1c1ccccc1 (configuration not stated)
286 to 288	Nc1ccc2c(c1)C(=O)NS2(=O)=O
134 to 136	O=C(O)CC1CCCN1C(=O)c1ccc(Br)c(F)c1 (configuration not stated)
255 to 257	O=C(O)c1c[nH]nc1-c1ccccc1Cl
86 to 88	Cc1ccc(-c2cc(CBr)on2)cc1
74 to 76	CCSc1ccc(CC(=O)O)cc1
239 to 241	Nc1nncc(-c2cc(F)ccc2F)n1
158 to 160	O=C(O)c1cc(F)c(F)cc1C(=O)O
89 to 91	Cc1cc(C(N)=S)ccc1F
203 to 205	O=C(O)c1ccc(Br)cc1S
159 to 161	CC(C)C(NS(=O)(=O)c1ccccc1F)C(=O)O (configuration not stated)
82 to 84	CCC(Oc1ccccc1Cl)C(=O)O (configuration not stated)
226 to 230	O=C(O)c1cnco1
135 to 137	CCNc1nnc(C)c2ccccc12

Structure (SMILES)	melting point [°C]
O=c1c2ccccc2nc(Cl)n1-c1ccccc1	127 to 129
CC(C)CN1C(=O)CC(=O)NC1=O	144 to 146
Cc1c(C(=O)O)cnn1C(C)(C)C	132 to 134
COc1cc(CCl)ccc1SC	78 to 80
COc1ccc(OC)c(C(O)CN)c1 (configuration not stated)	96 to 98
